The text below walks through data of ChEMBL document CHEMBL2401691, “Synthesis and optimization of a novel series of HCV NS3 protease inhibitors: 4-arylproline analogs” (Bioorg Med Chem Lett, 2013).

The solubility is the dissolved amount per volume that the medium holds. High values mean a readily soluble substance, low ones a poorly soluble substance. As usually defined, the half-life is the time in which the quantity being followed falls by half. Low values mean rapid decline, high ones slow decline. Broadly, the Kp is the ratio of the level in a tissue or fluid to that in plasma or blood. As usually defined, the Cmax is the highest concentration seen after dosing. As a reminder, the clearance is a measure of how efficiently the substance is removed, as volume per time. A higher clearance goes with efficient removal. By bioavailability is commonly meant the share of a dose that reaches the circulation, judged against a reference dose that is usually intravenous. Higher therefore signals much systemic uptake. What is called AUC(0-inf) is the area under the concentration-time curve extrapolated to infinity. Low values mean less exposure, high ones more exposure.

The nature of series [1]: Solubility of the compound after 24 hrs at pH 7.2. It is filed as physicochemical. To be noted: buffer.
The nature of series [2]: Half life in human liver microsomes. The series is classed as ADME, Microsome. Background: Microsomes from liver hold many membrane-bound enzymes, among them those of drug oxidation.
A short description of series [3]: Half life in rat liver microsomes. It is filed as ADME, Microsome.
Series [4] in a line: Plasma concentration in rat at 5 mg/kg, po after 6 hrs. The series is classed as ADME, organism-based. On the set-up: dose 5 mg/kg, route oral.
Series [5] can be described thus: Ratio of drug level in rat liver to plasma at 5 mg/kg, po after 6 hrs. It is filed as ADME, organism-based. More on the design: dose 5 mg/kg, route oral.
The nature of series [6]: Volume of distribution at steady state in rat at 2 mg/kg, iv. It is filed as ADME, organism-based. More on the design: dose 2 mg/kg, route intravenous. The conditions noted are these: in vivo, read-out: Vdss.
The nature of series [7]: Cmax in rat at 5 mg/kg, po. It is filed as ADME, organism-based. On the set-up: dose 5 mg/kg, route oral. The conditions noted are these: in vivo.
A short description of series [8]: Total clearance in rat at 2 mg/kg, iv. The series is classed as ADME, organism-based. On the set-up: dose 2 mg/kg, route intravenous. To be noted: in vivo.
Series [9] can be described thus: Oral bioavailability in rat at 5 mg/kg. The conditions noted are these: in vivo. It is filed as ADME, organism-based.
The nature of series [10]: AUC (0 to infinity) in rat at 5 mg/kg, po. It is filed as ADME, organism-based. On the set-up: time infinity, dose 5 mg/kg, route oral. To be noted: plasma.
The nature of series [11]: Half life in rat at 2 mg/kg, iv. It is filed as ADME, organism-based. More on the design: dose 2 mg/kg, route intravenous. To be noted: in vivo.
Series [12] can be described thus: Drug uptake in rat liver at 5 mg/kg, po after 6 hrs. The series is classed as ADME, organism-based. More on the design: dose 5 mg/kg, route oral. The conditions noted are these: read-out: Drug uptake.

In brackets after ≈: the same amount, converted by molar mass.

In the case of `C=C[C@@H]1C[C@]1(NC(=O)[C@@H]1C[C@@](OC)(c2ccc(-c3cscn3)cc2)CN1C(=O)[C@@H](NC(=O)OC1CCCC1)C(C)(C)C)C(=O)NS(=O)(=O)C1CC1`, the solubility at 24 h in [1] was found to be 540 µg/mL (≈ 728 µM). Moreover, the half-life in [2] turned out to be 0.9 h; in series [3] it was 3.67 h.
The like results for `C=C[C@@H]1C[C@]1(NC(=O)[C@@H]1C[C@@](OC)(c2ccc(-c3ccccc3)nc2)CN1C(=O)[C@@H](NC(=O)OC1CCCC1)C(C)(C)C)C(=O)NS(=O)(=O)C1CC1` were, in that order, 600 µg/mL (≈ 815 µM), 1.45 h and 2 h.
On to `C=C[C@@H]1C[C@]1(NC(=O)[C@@H]1C[C@@](OC)(c2ccc(-c3nccs3)nc2)CN1C(=O)[C@@H](NC(=O)OC1CCCC1)C(C)(C)C)C(=O)NS(=O)(=O)C1CC1`, for which, in series [1], the solubility at 24 h is above 920 µg/mL. For the same molecule, the half-life in [2] came to 2.28 h.
Molecule `C=C[C@@H]1C[C@]1(NC(=O)[C@@H]1C[C@@](OC)(c2ccc(-c3cc(C)ccc3OC)nc2)CN1C(=O)[C@@H](NC(=O)OC1CCCC1)C(C)(C)C)C(=O)NS(=O)(=O)C1CC1` returned a solubility at 24 h in [1] of 310 µg/mL (≈ 397 µM). Further, the half-life in series [2] is 1.4 h; in [3] it was 1.42 h.
With `C=C[C@@H]1C[C@]1(NC(=O)[C@@H]1C[C@@](OC)(c2ccc(-c3ccccc3)cc2)CN1C(=O)[C@@H](NC(=O)OC1CCCC1)C(C)(C)C)C(=O)NS(=O)(=O)C1CC1`, the concentration at 6 h in series [4] is 50 nM; in series [12], 2300 nM. For the same molecule, the partition ratio (Kp) at 6 h in series [5] was determined as 45. For the same molecule, the Vd in series [6] stood at 3.04 L/kg. The concentration in series [7] peaked (Cmax) at 320 nM. Besides, the solubility at 24 h in [1] came out at 43 µg/mL (≈ 58.5 µM). Besides, the clearance in series [8] turned out to be 28 mL/min/kg. In addition, the bioavailability in [9] came to 33%. Further, the AUC(0-inf) in series [10] stood at 1.32 µM·h. Further, the half-life was 1.18 h in [2], 2.94 h in series [11] and 1.98 h in [3].
As to `C=C[C@@H]1C[C@]1(NC(=O)[C@@H]1C[C@@](OC)(c2ccc(-c3ccccc3OC)cc2)CN1C(=O)[C@@H](NC(=O)OC1CCCC1)C(C)(C)C)C(=O)NS(=O)(=O)C1CC1`, in series [1], the solubility at 24 h was determined as 36 µg/mL (≈ 47.1 µM). Further, the half-life in series [2] came out at 0.717 h.
The like results for `C=C[C@@H]1C[C@]1(NC(=O)[C@@H]1C[C@@](OC)(c2ccc(-c3cccc(OC)c3)cc2)CN1C(=O)[C@@H](NC(=O)OC1CCCC1)C(C)(C)C)C(=O)NS(=O)(=O)C1CC1` were, in that order, 19 µg/mL (≈ 24.8 µM) and 1.12 h.
In series [1], `C=C[C@@H]1C[C@]1(NC(=O)[C@@H]1C[C@@](OC)(c2ccc(-c3ccc(OC)cc3)cc2)CN1C(=O)[C@@H](NC(=O)OC1CCCC1)C(C)(C)C)C(=O)NS(=O)(=O)C1CC1` returned a solubility at 24 h of 17 µg/mL (≈ 22.2 µM). Further, the results for the half-life in [2] and in [3] were 0.85 h and 1.4 h, respectively.
The like results for `C=C[C@@H]1C[C@]1(NC(=O)[C@@H]1C[C@@](OC)(c2ccc(-c3cccnc3)cc2)CN1C(=O)[C@@H](NC(=O)OC1CCCC1)C(C)(C)C)C(=O)NS(=O)(=O)C1CC1` were, in that order, 940 µg/mL (≈ 1280 µM), 0.883 h and 2.17 h.
The like results for `C=C[C@@H]1C[C@]1(NC(=O)[C@@H]1C[C@@](OC)(c2ccc(-c3ccncc3)cc2)CN1C(=O)[C@@H](NC(=O)OC1CCCC1)C(C)(C)C)C(=O)NS(=O)(=O)C1CC1` were, in that order, above 790 µg/mL, 1.32 h and 1.83 h.
The molecule `C=C[C@@H]1C[C@]1(NC(=O)[C@@H]1C[C@@](OC)(c2ccc(-c3ccc(C)cn3)cc2)CN1C(=O)[C@@H](NC(=O)OC1CCCC1)C(C)(C)C)C(=O)NS(=O)(=O)C1CC1` yielded a half-life in [2] of 0.917 h.
In turn, `C=C[C@@H]1C[C@]1(NC(=O)[C@@H]1C[C@@](OC)(c2ccc(-c3cnn(C)c3)cc2)CN1C(=O)[C@@H](NC(=O)OC1CCCC1)C(C)(C)C)C(=O)NS(=O)(=O)C1CC1` yielded a solubility at 24 h in series [1] of 540 µg/mL (≈ 731 µM). Moreover, the figures for the half-life in series [2] and in series [3] were 1.37 h and 2 h, respectively.
The like results for `C=C[C@@H]1C[C@]1(NC(=O)[C@@H]1C[C@@](OC)(c2ccc(-c3nccs3)cc2)CN1C(=O)[C@@H](NC(=O)OC1CCCC1)C(C)(C)C)C(=O)NS(=O)(=O)C1CC1` were, in that order, 452 µg/mL (≈ 609 µM), 1.1 h and 1.1 h.
